Consider 1 compound from publication PMC12624743 (ACS Infectious Diseases, 2025).

≈ marks a conversion by molar mass, not a printed value. A value given as a limit tells only on which side of the number the result lay.

For test [1], the system named is N. gonorrhoeae FA1090E-2 (GyrA^WT/ParC^D86N). The experiment in a line: MIC by agar dilution, ParC^D86N strain. The class given is cell-based. The following applies: Neisseria gonorrhoeae. As to the method:
Mutations in these efflux genes can result in increased efflux to multiple antibiotics. […] Parental and isogenic mutant strains generated that carried the efflux mutations mtrR-79 and norM ΔT T6 were designated as FA1090E (E for efflux positive). Only the additional GyrA and ParC genotypes are described in Table and in the text. The mutant that additionally expressed ParC^D86N was named FA1090E-2.
(§1) Minimum inhibitory concentration (MIC) of test compounds was determined by an agar dilution method, the reference testing method for N. gonorrhoeae according to the standards of the Clinical and Laboratory Standards Institute and the CDC.
On the technique in general: Agar dilution tests growth on a series of plates holding different concentrations.

In test [2] the test system is N. gonorrhoeae FA1090E-4 (GyrA^D90N/ParC^WT). The experiment in a line: MIC by agar dilution, GyrA^D90N strain. Type of test: cell-based. To be noted: Neisseria gonorrhoeae. As to the method: This strain was designated FA1090E-4 (GyrA^D90N).
as §1

In test [3] the target is T1, N. gonorrhoeae gyrase GyrA^S91F (Neisseria gonorrhoeae, UniProt P48371, S91F).
T1 construct: His; made in house
The experiment in a line: Gyrase-catalyzed DNA supercoiling assay, GyrA^S91F. Type of test: biochemical. As to the method:
All proteins were His-tagged. N. gonorrhoeae WT gyrase (GyrA, GyrB) and topoisomerase IV (ParC, ParE) subunits as well as mutant GyrA^D90N, GyrA^A92T, GyrA^S91F, and GyrA^S91F/D95G gyrase and ParC^D86N and ParC^S88P topoisomerase IV were prepared as described previously. , N. gonorrhoeae mutant GyrA^D95G gyrase and mutant ParC^S87N and ParC^E91G topoisomerase IV were generated using a QuickChange II XL site-directed mutagenesis kit (Agilent Technologies) with custom primers for the desired mutations. […] The identities of all constructs were confirmed by DNA sequencing, and all enzymes were stored at −80 °C. In all assays, N. gonorrhoeae gyrase or topoisomerase IV was used as a 1:1 GyrA:GyrB or ParC:ParE mixture, respectively, and the stated enzyme concentration reflects that of the holoenzyme (A2B2).
Samples were mixed with 2 μL of loading dye [60% sucrose, 10 mM Tris–HCl (pH 7.9), 0.5% bromophenol blue, and 0.5% xylene cyanol FF] and incubated at 45 °C for 2 min before being subjected to electrophoresis on 1% agarose gels in 100 mM Tris-borate (pH 8.3) and 2 mM EDTA. […] DNA bands were visualized with medium-range ultraviolet light and quantified using an Alpha Innotech digital imaging system (Protein Simple). DNA supercoiling was monitored by the conversion of relaxed to supercoiled plasmid.

The target in test [4] is T2, N. gonorrhoeae topoisomerase IV ParC^D86N (Neisseria gonorrhoeae, UniProt P48374, D86N).
T2 construct: His; made in house
T2 sequence (P48374 1-768 D86N): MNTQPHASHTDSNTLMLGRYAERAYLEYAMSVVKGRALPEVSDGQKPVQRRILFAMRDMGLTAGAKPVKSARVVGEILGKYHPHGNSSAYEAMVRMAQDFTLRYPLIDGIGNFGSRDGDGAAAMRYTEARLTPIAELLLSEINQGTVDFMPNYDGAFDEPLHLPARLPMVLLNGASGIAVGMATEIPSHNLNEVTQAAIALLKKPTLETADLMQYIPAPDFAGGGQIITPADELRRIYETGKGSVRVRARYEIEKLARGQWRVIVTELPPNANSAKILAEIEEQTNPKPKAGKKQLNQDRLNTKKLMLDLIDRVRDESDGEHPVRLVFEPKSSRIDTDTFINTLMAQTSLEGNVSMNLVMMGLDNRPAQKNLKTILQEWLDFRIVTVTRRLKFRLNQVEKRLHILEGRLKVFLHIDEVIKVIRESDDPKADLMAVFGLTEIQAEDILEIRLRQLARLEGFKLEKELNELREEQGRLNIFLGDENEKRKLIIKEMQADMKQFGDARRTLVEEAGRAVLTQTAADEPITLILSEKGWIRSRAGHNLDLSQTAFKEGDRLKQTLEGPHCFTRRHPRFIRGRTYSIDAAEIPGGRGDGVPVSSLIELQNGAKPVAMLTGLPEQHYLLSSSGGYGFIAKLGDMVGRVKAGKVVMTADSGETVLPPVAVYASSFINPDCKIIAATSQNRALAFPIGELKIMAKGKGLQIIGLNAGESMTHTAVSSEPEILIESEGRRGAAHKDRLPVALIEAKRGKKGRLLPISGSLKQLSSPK
The experiment in a line: DNA cleavage assay, ParC^D86N topoisomerase IV. The class given is biochemical. As to the method: Some experiments replaced MgCl2 with an equivalent concentration of CaCl2 (10 mM), or 1.5 mM ATP was added to assay mixtures.
Reactions were incubated at 37 °C for 30 min with WT and mutant (GyrA^D90N, GyrA^A92T, GyrA^S91F, GyrA^D95G, or GyrA^S91F/D95G) N. gonorrhoeae gyrase, 10 min with WT N. gonorrhoeae topoisomerase IV, and 20 min with mutant (ParC^D86N, ParC^S88P, ParC^S87N, or ParC^E91G) N. gonorrhoeae topoisomerase IV. Enzyme-DNA cleavage complexes were trapped by adding 2 μL of 5% SDS followed by 2 μL of 250 mM EDTA (pH 8.0). Proteinase K was added (2 μL of a 0.8 mg/mL solution), and reaction mixtures were incubated at 45 °C for 30 min to digest the enzyme. Samples were mixed with 2 μL of loading buffer and heated at 45 °C for 2 min prior to electrophoresis in 1% agarose gels in 40 mM Tris-acetate (pH 8.3), and 2 mM EDTA containing 0.5 μg/mL ethidium bromide. DNA bands were visualized by midrange ultraviolet light and quantified using an Alpha Innotech digital imaging system (Protein Simple). Single-stranded DNA cleavage was monitored by the conversion of negatively supercoiled to nicked plasmid molecules.

T1 sequence (P48371 whole entry S91F): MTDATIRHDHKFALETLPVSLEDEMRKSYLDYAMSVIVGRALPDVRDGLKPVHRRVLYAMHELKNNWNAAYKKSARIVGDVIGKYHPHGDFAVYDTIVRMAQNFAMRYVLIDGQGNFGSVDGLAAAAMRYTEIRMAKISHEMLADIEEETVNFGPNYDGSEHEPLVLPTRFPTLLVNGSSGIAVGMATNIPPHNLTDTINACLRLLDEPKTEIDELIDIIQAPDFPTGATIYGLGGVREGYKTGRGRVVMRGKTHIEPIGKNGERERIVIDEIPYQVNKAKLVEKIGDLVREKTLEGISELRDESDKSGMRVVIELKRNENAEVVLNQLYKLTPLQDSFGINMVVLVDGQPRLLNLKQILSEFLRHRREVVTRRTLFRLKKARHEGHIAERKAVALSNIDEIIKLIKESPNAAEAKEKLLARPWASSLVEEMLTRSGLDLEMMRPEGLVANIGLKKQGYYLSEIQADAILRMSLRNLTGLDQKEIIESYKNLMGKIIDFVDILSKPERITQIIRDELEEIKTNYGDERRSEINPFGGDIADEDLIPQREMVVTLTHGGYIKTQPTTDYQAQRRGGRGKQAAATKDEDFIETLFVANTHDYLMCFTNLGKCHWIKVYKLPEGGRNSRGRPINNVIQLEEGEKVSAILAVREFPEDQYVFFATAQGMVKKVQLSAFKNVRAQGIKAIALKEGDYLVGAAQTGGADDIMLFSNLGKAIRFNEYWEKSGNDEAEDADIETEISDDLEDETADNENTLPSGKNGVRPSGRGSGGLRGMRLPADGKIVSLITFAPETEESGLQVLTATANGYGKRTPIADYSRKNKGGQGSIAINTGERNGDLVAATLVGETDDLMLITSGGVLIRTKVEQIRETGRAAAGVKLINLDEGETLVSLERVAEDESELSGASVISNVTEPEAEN
T1 sequence (P22118 whole entry partner): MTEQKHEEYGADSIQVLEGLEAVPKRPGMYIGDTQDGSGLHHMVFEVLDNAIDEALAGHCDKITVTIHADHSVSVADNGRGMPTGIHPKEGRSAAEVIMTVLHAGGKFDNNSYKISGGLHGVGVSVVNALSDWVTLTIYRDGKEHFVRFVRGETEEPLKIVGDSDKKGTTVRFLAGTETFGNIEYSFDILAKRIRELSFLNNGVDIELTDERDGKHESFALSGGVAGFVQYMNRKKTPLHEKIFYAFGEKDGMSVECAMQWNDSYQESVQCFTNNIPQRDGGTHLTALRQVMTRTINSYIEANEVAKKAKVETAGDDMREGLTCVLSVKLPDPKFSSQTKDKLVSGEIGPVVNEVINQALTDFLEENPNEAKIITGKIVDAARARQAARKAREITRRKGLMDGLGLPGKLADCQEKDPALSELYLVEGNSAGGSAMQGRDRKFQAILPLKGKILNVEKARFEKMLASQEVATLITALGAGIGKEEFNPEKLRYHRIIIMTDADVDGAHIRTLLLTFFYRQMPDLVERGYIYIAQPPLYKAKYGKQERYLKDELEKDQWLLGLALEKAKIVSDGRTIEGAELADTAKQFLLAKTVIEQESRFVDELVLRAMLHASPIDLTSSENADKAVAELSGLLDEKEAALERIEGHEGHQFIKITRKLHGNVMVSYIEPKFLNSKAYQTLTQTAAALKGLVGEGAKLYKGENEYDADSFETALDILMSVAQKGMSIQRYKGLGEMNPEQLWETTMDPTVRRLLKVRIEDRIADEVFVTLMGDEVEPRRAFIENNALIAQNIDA

Regarding `O=c1ccc2ncc(=O)n3c2n1C[C@H]3CN1CCC(NCc2cc3c(cn2)OCCC3)CC1` [gepotidacin], the MIC in test [1] stood at 0.5 µg/mL (≈ 1.11 µM); in test [2], 1 µg/mL (≈ 2.23 µM). In test [3] (GyrA S91F gyrase, read-out: IC50, inhibition of DNA supercoiling), the IC50 turned out to be 7.5 µM. Besides, the “fold increase of supercoiling IC50 vs WT gyrase” value in test [3] (GyrA S91F vs WT) was approximately 1.5 fold. Also, the “Adj-Max Cleavage, single-stranded DNA breaks” value in test [4] is recorded as 9.3%. The EC50 in test [4] (ParC D86N topoisomerase IV, read-out: CC50, single-stranded DNA cleavage) is more than 50 µM.

Usually MIC stands for the smallest concentration in the dilution series that meets the test's criterion for growth inhibition. The low end stands for a more susceptible organism, the high end for a less susceptible organism. For orientation: IC50 means the concentration that gives 50% inhibition.
